# According to BindingDB's records for doi:10.1016/j.jmb.2008.04.054 (Gilead Sciences, 2008):
# Molecular target: T1, Gag-Pol polyprotein [1148-1435] (Human immunodeficiency virus 1, UniProt P04585)
# T1 construct: 1148-1435
# Assay: Integrase 3-End Joining Assay
# Details: pH 7.3; 22 °C
# Protocol: In the 3-end joining assay, the biotinylated donor DNA was bound to streptavidin-coated plates, and integrase was added to each well to allow processing of the donor DNA. Serially diluted compounds and DIG-tagged target DNA were then added to each well, and 3-end joining reaction was allowed to proceed for 30 min. Signal was detected using horseradishperoxidase-conjugated anti-Digoxin antibody through chemiluminescence measurement.
row,Structure (SMILES),IC50
1,COc1c2c(c(O)c3ncccc13)C(=O)N(Cc1ccc(F)cc1)C2,0.06 µM
2,"O=C(NCc1ccc(F)cc1)c1nc(N2CCCCS2(=O)=O)c2cccnc2c1O [5-(1,1-dioxo-1,2-thiazinan-2-yl)-N-[(4-fluorophenyl)methyl]-8-hydroxy-1,6-naphthyridine-7-carboxamide]",0.044 µM
3,"CC[C@H](CO)n1cc(C(=O)O)c(=O)c2cc(Cc3cccc(Cl)c3F)ccc21 [6-[(3-chloro-2-fluorophenyl)methyl]-1-[(2R)-1-hydroxybutan-2-yl]-4-oxo-1,4-dihydroquinoline-3-carboxylic acid]",0.042 µM
4,"COc1c2c(c(OC)c3ncccc13)C(=O)N(Cc1ccc(F)cc1)C2 [7-[(4-fluorophenyl)methyl]-5,9-dimethoxy-6H,7H,8H-pyrrolo[3,4-g]quinolin-8-one]",> 1000 µM
5,"COc1c2c(cc3ncccc13)C(=O)N(Cc1ccc(F)cc1)C2 [7-[(4-fluorophenyl)methyl]-5-methoxy-6H,7H,8H-pyrrolo[3,4-g]quinolin-8-one]",24 µM
6,O=C(O)C(=O)CC(=O)c1cccc(Cc2ccccc2)c1 [(2Z)-4-(3-benzylphenyl)-2-hydroxy-4-oxobut-2-enoic acid],0.026 µM
